Source: patent US20110154874A1, “MIXTURE FOR THE TREATMENT OF UREA-CONTAINING FERTILIZERS” (FERTIVA GmbH, priority 2007, published 2011)
“And” between values parts separate entries of the source, which are not always exact repeats. Equal values may be shown once.

How the values were obtained:
[1] = Storage test over 30 days, NBPT loss on treated granulated urea (HPLC analysis); type: physicochemical; conditions: active compound applied to urea
Experimental: In a further storage test over 30 days at 30° C. and an atmospheric humidity of 60%, the NBPT losses measured (HPLC analysis) were as indicated below. At the beginning of the storage test, the NBPT was applied in a concentration of 0.12% by weight, based on the fertilizer, in a solution having the composition indicated below. The carrier fertilizer used was granulated urea.

Chinese cabbage = conditions: in vivo

| stabilizing action on the active compound [1] | Compound | Fresh mass of shoots 21 days after planting (Chinese cabbage) |
| --- | --- | --- |
| no stabilizing action | CN1CCCC1=O [N-methylpyrrolidone (NMP), N-methylpyrrolidone] | – |
| – | NC(N)=O [Urea] | 14.3 g/pot and 20.05 g/pot and 11.65 g/pot |
